The values that follow come from patent US11926574B2, “Dimethoxyphenylalkylamine activators of serotonin receptors” (Entheogenix Biosciences, Inc., priority 2021, dated 2024).

Where a name gives a salt, the structure may show the parent alone. Read-outs that look alike come from different tables or passages of the source.

Common to all, as to format: cell-based
The target of test [1] is 5-HT2B (Homo sapiens, UniProt P41595). Nature of the test: Calcium mobilization assay (Gq signaling), 5-HT2B. The protocol:
(§1) The Calcium No-Wash^PLUS assay monitors the activation of a GPCR via Gq secondary messenger signaling in a live cell, non-imaging assay format. Calcium mobilization in PathHunter® cell lineSOR other cell lines stably expressing Gq-Coupled GPCR5 is monitored using a calcium-sensitive dye that is loaded into cells. GPCR activation by a compound results in the release of calcium from intracellular stores and an increase in dye fluorescence that is measured in real-time.
Cell lines expressing the GPCR of interest were expanded from freezer stocks according to standard procedures. Cells were seeded in a total volume of 20 μL into black-walled, clear-bottom, Poly-D-lysine coated 384-well microplates and incubated at 37° C. for the appropriate time prior to testing. Assays were performed in 1× Dye Loading Buffer consisting of 1× Dye, 1× Additive A and 2.5 mM Probenecid in HB SS/20 mM Hepes. Probenicid was prepared fresh. Cells were loaded with dye prior to testing. Media was aspirated from cells and replaced with 20 μL Dye Loading Buffer. Cells were incubated for 30-60 minutes at 37° C. For agonist determination, cells were incubated with sample to induce response. After dye loading, cells were removed from the incubator and 10 μL HBSS/20 mM Hepes was added. […] Compound agonist activity was measured on a FLIPR Tetra (MDS). Calcium mobilization was monitored for 2 minutes and 10 μL 4× sample in HB SS/20 mM Hepes was added to the cells 5 seconds into the assay. Compound activity data was analyzed using CBIS data analysis suite (ChemInnovation, California). For agonist mode assays, percentage activity is calculated using the following formula: % Activity=100%×(mean RFU of test sample−mean RFU of vehicle control)/(mean MAX RFU control ligand−mean RFU of vehicle control). […]
(§2) Compounds 1-1·HCl, 1-2 and 2-1 were assessed for biological activity across a panel of 5-HT receptors including 5-HT2A, 5-HT2B, 5-HT2C and 5-HT1A. Biased signaling was assessed by monitoring both intracellular Gq-mediated calcium release, as well as beta-arrestin activation and recruitment to the GPCR.

Test [2] addresses T1, 5-HT1A (Homo sapiens, UniProt P08908).
T1 sequence (P08908 1-422): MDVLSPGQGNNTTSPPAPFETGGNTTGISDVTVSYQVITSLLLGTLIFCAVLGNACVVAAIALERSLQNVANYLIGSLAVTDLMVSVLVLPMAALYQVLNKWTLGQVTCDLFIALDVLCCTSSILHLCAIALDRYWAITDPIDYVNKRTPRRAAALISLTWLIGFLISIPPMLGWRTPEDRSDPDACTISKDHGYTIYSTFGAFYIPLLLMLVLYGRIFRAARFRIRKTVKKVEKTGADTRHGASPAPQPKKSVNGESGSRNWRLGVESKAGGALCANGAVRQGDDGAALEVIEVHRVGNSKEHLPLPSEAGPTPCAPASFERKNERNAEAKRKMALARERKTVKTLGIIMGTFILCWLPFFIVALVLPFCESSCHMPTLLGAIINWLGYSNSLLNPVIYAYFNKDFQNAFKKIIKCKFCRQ
Briefly: Calcium mobilization assay (Gq signaling), 5-HT1A. The protocol:
as §1
(§3) Cell lines expressing the GPCR of interest were expanded from freezer stocks according to standard procedures. […] Compound agonist activity was measured on a FLIPR Tetra (MDS). Calcium mobilization was monitored for 2 minutes and 10 μL 4× sample in HB SS/20 mM Hepes was added to the cells 5 seconds into the assay. Compound activity data was analyzed using CBIS data analysis suite (ChemInnovation, California). For agonist mode assays, percentage activity is calculated using the following formula: % Activity=100%×(mean RFU of test sample−mean RFU of vehicle control)/(mean MAX RFU control ligand−mean RFU of vehicle control). […]
as §2
(In general: Calcium assays in cells follow changes in intracellular calcium, usually with a dye or a luminescent sensor.)

Test [3] has as its target T2, 5HT2A (Homo sapiens, UniProt P28223). Briefly: Calcium mobilization assay (Gq signaling), 5-HT2A. To be noted: for type of agonism of 5-HT2A mediated signaling: EC50 profiles, FIG. 1; for Emax: read-out: maximum effect level, Gq signaling. Here is the method: as §1
Cell lines expressing the GPCR of interest were expanded from freezer stocks according to standard procedures. Cells were seeded in a total volume of 20 μL into black-walled, clear-bottom, Poly-D-lysine coated 384-well microplates and incubated at 37° C. for the appropriate time prior to testing. Assays were performed in 1× Dye Loading Buffer consisting of 1× Dye, 1× Additive A and 2.5 mM Probenecid in HB SS/20 mM Hepes. Probenicid was prepared fresh. Cells were loaded with dye prior to testing. Media was aspirated from cells and replaced with 20 μL Dye Loading Buffer. Cells were incubated for 30-60 minutes at 37° C. For agonist determination, cells were incubated with sample to induce response. After dye loading, cells were removed from the incubator and 10 μL HBSS/20 mM Hepes was added. 3× vehicle was included in the buffer when performing agonist dose curves to define the EC80 for subsequent antagonist assays. Cells were incubated for 30 minutes at room temperature in the dark to equilibrate plate temperature. Intermediate dilution of sample stocks was performed to generate 4× sample in assay buffer. Compound agonist activity was measured on a FLIPR Tetra (MDS). Calcium mobilization was monitored for 2 minutes and 10 μL 4× sample in HB SS/20 mM Hepes was added to the cells 5 seconds into the assay. Compound activity data was analyzed using CBIS data analysis suite (ChemInnovation, California). For agonist mode assays, percentage activity is calculated using the following formula: % Activity=100%×(mean RFU of test sample−mean RFU of vehicle control)/(mean MAX RFU control ligand−mean RFU of vehicle control). In these studies, the MAX RFU was generated by using 0.1 μM serotonin for the calcium mobilization assay.
as §2

The target of test [4] is T2, 5HT2A. Briefly: PathHunter β-Arrestin assay, 5-HT2A. Here is the method: PathHunter cell lines (DiscoveRx Eurofins) were expanded from freezer stocks according to standard procedures. Cells were seeded in a total volume of 20 μL into white walled, 384-well microplates and incubated at 37° C. for the appropriate time prior to testing. For agonist determination, cells were incubated with sample to induce response. Intermediate dilution of sample stocks was performed to generate 5× sample in assay buffer. 5 μL of 5× sample was added to cells and incubated at 37° C. or room temperature for 90 to 180 minutes. […] Microplates were read following signal generation with a PerkinElmer Envision™ instrument for chemiluminescent signal detection. Compound activity was analyzed using CBIS data analysis suite (ChemInnovation, California). For agonist mode assays, percentage activity was calculated using the following formula: % Activity=100%×(mean RLU of test sample−mean RLU of vehicle control)/(mean MAX control ligand−mean RLU of vehicle control). […]
as §2

For test [5], the target named is T3, 5-HT2C (Homo sapiens, UniProt P28335).
T3 sequence (P28335 33-458): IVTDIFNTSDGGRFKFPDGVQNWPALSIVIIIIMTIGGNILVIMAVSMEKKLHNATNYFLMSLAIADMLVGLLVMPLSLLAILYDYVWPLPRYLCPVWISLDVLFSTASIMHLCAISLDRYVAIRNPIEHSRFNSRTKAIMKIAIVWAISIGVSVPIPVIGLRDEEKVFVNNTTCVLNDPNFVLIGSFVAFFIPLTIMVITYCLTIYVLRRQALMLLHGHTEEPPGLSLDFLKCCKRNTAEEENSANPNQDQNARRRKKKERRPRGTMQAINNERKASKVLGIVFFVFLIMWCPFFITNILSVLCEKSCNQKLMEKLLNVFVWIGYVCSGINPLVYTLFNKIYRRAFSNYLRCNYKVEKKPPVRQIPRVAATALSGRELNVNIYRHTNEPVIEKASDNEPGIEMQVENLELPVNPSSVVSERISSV
Nature of the test: Calcium mobilization assay (Gq signaling), 5-HT2C. Here is the method: as §1, §3, §2

Test [6] addresses T2, 5HT2A. Nature of the test: 5HT2A Activity (% Max Activation @ 0.3 uM).

A word on the EC50: it is the concentration at which the effect is half-maximal.

Chain of 5-HT2B (P41595 whole entry): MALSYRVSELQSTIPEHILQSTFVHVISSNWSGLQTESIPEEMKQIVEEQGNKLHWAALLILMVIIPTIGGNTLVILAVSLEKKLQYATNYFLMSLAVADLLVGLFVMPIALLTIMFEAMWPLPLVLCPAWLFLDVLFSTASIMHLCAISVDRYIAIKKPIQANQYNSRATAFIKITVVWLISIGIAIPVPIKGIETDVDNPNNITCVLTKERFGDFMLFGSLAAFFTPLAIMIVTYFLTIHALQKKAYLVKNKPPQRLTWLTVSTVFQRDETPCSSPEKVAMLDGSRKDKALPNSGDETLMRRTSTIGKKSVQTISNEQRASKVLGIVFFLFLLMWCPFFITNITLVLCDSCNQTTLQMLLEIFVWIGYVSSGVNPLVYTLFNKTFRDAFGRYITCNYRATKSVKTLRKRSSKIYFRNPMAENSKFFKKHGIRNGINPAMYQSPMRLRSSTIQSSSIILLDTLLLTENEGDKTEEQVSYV
T2 sequence (P28223 whole entry): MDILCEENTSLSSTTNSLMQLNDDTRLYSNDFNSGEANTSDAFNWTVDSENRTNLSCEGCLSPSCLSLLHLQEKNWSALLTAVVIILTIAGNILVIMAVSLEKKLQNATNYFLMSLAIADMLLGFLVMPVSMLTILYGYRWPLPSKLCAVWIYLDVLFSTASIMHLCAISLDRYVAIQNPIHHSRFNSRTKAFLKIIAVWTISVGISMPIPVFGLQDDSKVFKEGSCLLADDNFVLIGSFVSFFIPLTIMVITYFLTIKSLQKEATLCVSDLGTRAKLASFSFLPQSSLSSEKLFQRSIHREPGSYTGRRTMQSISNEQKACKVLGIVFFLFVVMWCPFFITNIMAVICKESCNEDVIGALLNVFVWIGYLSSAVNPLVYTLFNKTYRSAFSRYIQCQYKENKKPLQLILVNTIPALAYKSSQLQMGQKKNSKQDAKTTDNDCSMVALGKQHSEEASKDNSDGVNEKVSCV

For `COc1ccc(OC)c2c1CCC(NCc1cc(C)cc(Cl)c1)C2` (stereo not shown) [1-1·HCl, N-(3-chloro-5-methylbenzyl)-5,8-dimethoxy-1,2,3,4-tetrahydronaphthalen-2-amine hydrochloride], the EC50 in test [1] (Gq signaling, read-out: EC50, 5-HT2B (Gq signaling)) was found to be 23.2 µM; in test [2] (Gq signaling, read-out: EC50, 5-HT1A (Gq signaling)) it was 17.2 µM; in test [3], 0.134 µM; in test [4] it was 0.172 µM; in test [5] (Gq signaling, read-out: EC50, 5-HT2C (Gq signaling)), 10 µM. The “type of agonism of 5-HT2A mediated signaling” value in test [3] is “full-agonism”. For the same molecule, in test [3], the Emax is roughly 100%.

The molecule `COc1ccc(OC)c(CCNCc2cc(C)cc(Cl)c2)c1` [Compound 2-1, N-(3-chloro-5-methylbenzyl)-2-(2,5-dimethoxyphenyl)ethan-1-amine] showed an Emax at 0.3 µM in test [6] of 98%. In addition, the concentration for a half-maximal effect (EC50) in test [1] was determined as 44.1 µM; in test [2], 24.7 µM; in test [3], 0.01 µM; in test [4] it was 0.023 µM; in test [5] it was 0.091 µM. The “activity at 5-HT2B” value in test [1] (concentrations less than 10 uM) is “no appreciable activity”. Besides, the “selectivity for 5-HT2A over 5-HT2B” value in test [3] (5-HT2A compared to 5-HT2B) is listed as roughly 4400 fold. Also, in test [3], the “type of agonism of 5-HT2A mediated signaling” value is listed as “partial-agonist”. Besides, the Emax in test [3] was roughly 86%.

The molecule `COc1ccc(OC)c(CCNCc2cc(C)cc(C#N)c2)c1` [Compound 2-36, 3-(((2,5-dimethoxyphenethyl)amino)methyl)-5-methylbenzonitrile] yielded an Emax at 0.3 µM in test [6] of 16%.

`COc1ccc(OC)c([C@@H](O)CNCc2cc(C)cc(F)c2)c1` [Compound 2-41, (R)-1-(2,5-dimethoxyphenyl)-2-((3-fluoro-5-methylbenzyl)amino)ethan-1-ol hydrochloride] returned an Emax at 0.3 µM in test [6] of 74%.
